# Reference: patent US11083716B2 (Achieve Life Sciences, Inc., priority 2019, dated 2021)
# Where two headings read alike, the source gives them in different places.
# How the values were obtained:
# [1] = test system: adults smoking 10+ cigarettes daily
# Experimental: This was a six-arm, multi-center, double-blind, randomized, placebo-controlled study conducted in male or female adults years of age, smoking 10+ cigarettes daily, and willing to set a quit date that is 5-7 days after randomization. […] The study also evaluated the effectiveness of a simplified TID dosing schedule for 1.5 mg and an increased dose of 3.0 mg (using both the commercial titration (COM) and simplified TID dosing schedules).
# Study treatment started the day after randomization such that study treatment was initiated prior to the quit date, as shown in FIG. 3.
# The primary efficacy endpoint for this study was the percent reduction in the number of cigarettes smoked during treatment, which was calculated as follows:
# [formula] where N=total number of cigarettes smoked, B=number of cigarettes smoked at baseline and D=number of days.
# The primary outcome (Cigarette Score) and the main secondary abstinence outcomes were subjected to sensitivity analyses. The main secondary abstinence outcomes were the initial quit rate at Week 4 and continued 4-week abstinence through Week 5 to Week 8, confirmed by expired CO of <10 ppm designated as Cess/W5-8/CO Success.
# The primary outcome was based on the number of cigarettes smoked on each day from a diary. The Cigarette Score used the diary data for the planned 25 days while on study treatment. Presented are sensitivity analyses for the comparison of the 3.0 mg TID arm and the pooled placebo arm related to variations on the primary analysis of Cigarette Score. The alternative definition of the Cigarette Score featured cigarettes recorded in the diary after the planned quit period of Days 5-7, that is, from Day 8 onward, instead of from Day 1 onward.
# Another alterative analysis was based on re-analyses of the primary Cigarette Score and the above alternative Cigarette Score, with a weight related to the standard error of the mean number of cigarettes estimated from the diary entries. The weight used for each subject was 1/(SE)^2, where SE is the standard error of the mean estimate, and this type of weighting, referred to as inverse variance weighting, is used commonly. This weighting gives greater weight to means that are estimated with a smaller SE. A small modification to this definition of weight was necessary, however. In computing 1/(SE)^2, a specific rule was used when SE=0, specifically when all diary entry values were equal. In these cases, the SE was computed as if one and only one of the recorded values was larger by one. It can be shown that when this modification to the data is made SE=1/N, where N is the number of the subjects daily (days) entries.
# [2] = molecular target: alpha4, beta2 (α4β2) receptors (Homo sapiens, UniProt P17787+P43681); conditions: cited from earlier work
# [3] = test system: smokers; conditions: cited from earlier work
# [4] = test system: smokers; conditions: cited from earlier work; remark: listed apart in the source
# [5] = Cochrane (n > 7000); cited from earlier work
# [6] = 1.5 mg Downward Titration (n = 51)
# [7] = 3.0 mg Downward Titration (n = 50)
# [8] = end of treatment, 12 weeks (EAGLES)
# 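Throughout, for TEAE: Abnormal dreams, subjects n (%): multicenter double-blind randomized placebo-controlled trial in adult smokers of 10 or more cigarettes per day, counting subjects with treatment-emergent adverse events per arm.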
# 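Throughout, for TEAE: At least 1 AE, subjects n (%): multicenter double-blind randomized placebo-controlled trial in adult smokers of 10 or more cigarettes per day, counting subjects with treatment-emergent adverse events per arm.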
# 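Throughout, for TEAE: Fatigue, subjects n (%): multicenter double-blind randomized placebo-controlled trial in adult smokers of 10 or more cigarettes per day, counting subjects with treatment-emergent adverse events per arm.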
# 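Throughout, for TEAE: Headache, subjects n (%): multicenter double-blind randomized placebo-controlled trial in adult smokers of 10 or more cigarettes per day, counting subjects with treatment-emergent adverse events per arm.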
# alpha4, beta2 (α4β2) receptors, sequence (P43681 29-627 limits assumed): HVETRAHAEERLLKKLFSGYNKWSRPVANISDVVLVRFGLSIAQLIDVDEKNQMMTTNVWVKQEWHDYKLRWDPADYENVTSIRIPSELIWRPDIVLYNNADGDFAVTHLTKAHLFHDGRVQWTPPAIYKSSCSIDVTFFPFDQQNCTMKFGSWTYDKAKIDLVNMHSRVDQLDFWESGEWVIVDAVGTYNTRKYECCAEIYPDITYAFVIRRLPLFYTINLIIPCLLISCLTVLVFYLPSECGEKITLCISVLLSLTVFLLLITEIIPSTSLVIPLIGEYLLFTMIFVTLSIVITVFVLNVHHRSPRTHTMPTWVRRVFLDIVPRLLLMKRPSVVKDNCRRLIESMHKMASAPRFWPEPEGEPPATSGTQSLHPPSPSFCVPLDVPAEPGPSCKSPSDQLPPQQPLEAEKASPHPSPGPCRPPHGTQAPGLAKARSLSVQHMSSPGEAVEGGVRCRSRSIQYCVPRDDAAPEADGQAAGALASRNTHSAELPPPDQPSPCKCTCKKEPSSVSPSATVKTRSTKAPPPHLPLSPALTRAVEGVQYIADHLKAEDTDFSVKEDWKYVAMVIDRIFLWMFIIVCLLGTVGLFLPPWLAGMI
# alpha4, beta2 (α4β2) receptors, sequence (P17787 26-502): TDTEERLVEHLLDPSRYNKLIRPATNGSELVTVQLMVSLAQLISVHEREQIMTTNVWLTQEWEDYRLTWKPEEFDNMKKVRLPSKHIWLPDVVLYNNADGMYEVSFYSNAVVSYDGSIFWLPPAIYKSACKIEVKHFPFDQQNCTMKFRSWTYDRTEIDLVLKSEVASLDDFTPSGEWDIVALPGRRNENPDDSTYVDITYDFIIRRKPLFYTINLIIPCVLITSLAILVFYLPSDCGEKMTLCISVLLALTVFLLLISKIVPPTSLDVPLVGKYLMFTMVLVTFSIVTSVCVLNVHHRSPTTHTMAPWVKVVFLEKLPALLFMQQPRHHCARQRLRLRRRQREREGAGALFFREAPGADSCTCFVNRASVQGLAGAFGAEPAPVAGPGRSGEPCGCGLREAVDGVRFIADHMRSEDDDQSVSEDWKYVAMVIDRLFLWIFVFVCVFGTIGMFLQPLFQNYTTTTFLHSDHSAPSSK
structure (smiles),measurement,setting,value
"O=c1cccc2n1C[C@@H]1CNC[C@H]2C1 [cytisine, (−)-Cytisine]",Reduction in CO (expired),[1]; 1.5 mg TID,71%
same,Reduction in CO (expired),"[1]; 1.5 mg, titration (COM) schedule",78%
same,Reduction in CO (expired),[1]; 3.0 mg TID,80%
same,"OR, quit rate versus placebo","[1]; 3.0 mg TID, 4 weeks off treatment, Table 11",5.0
same,"OR, quit rate versus placebo","[1]; 3.0 mg TID, end of treatment (4 weeks), Tables 9-10",6.3
same,Reduction in CO (expired),"[1]; 3.0 mg, titration (COM) schedule",71%
same,serum cotinine levels,"[1]; all cytisine-treated arms, Week 4",material reduction
same,"Cigarette Score effect estimate (95% confidence interval), 3.0 mg TID versus pooled placebo","[1]; weighted analysis, diary from start of intervention","−11.8 (−24.4, 0.9)"
same,"TEAE: Abnormal dreams, subjects n (%)",[6],4 (8%)
same,"TEAE: At least 1 AE, subjects n (%)",[6],29 (57%)
same,"TEAE: Fatigue, subjects n (%)",[6],1 (2%)
same,"TEAE: Headache, subjects n (%)",[6],1 (2%)
same,"TEAE: Insomnia, subjects n (%)",[6],3 (6%)
same,"TEAE: Nausea, subjects n (%)",[6],5 (10%)
same,"TEAE: URTI, subjects n (%)",[6],3 (6%)
same,"TEAE: Abnormal dreams, subjects n (%)",1.5 mg TID (n = 52),4 (8%)
same,"TEAE: At least 1 AE, subjects n (%)",1.5 mg TID (n = 52),20 (39%)
same,"TEAE: Constipation, subjects n (%)",1.5 mg TID (n = 52),1 (2%)
same,"TEAE: Fatigue, subjects n (%)",1.5 mg TID (n = 52),3 (6%)
same,"TEAE: Headache, subjects n (%)",1.5 mg TID (n = 52),6 (12%)
same,"TEAE: Insomnia, subjects n (%)",1.5 mg TID (n = 52),4 (8%)
same,"TEAE: Nausea, subjects n (%)",1.5 mg TID (n = 52),1 (2%)
same,"TEAE: URTI, subjects n (%)",1.5 mg TID (n = 52),5 (10%)
same,overall safety following dosing,1.5 mg or 3.0 mg treatment arms on both schedules,no safety concerns
same,"TEAE: Abnormal dreams, subjects n (%)",[7],7 (14%)
same,"TEAE: At least 1 AE, subjects n (%)",[7],23 (46%)
same,"TEAE: Fatigue, subjects n (%)",[7],2 (4%)
same,"TEAE: Headache, subjects n (%)",[7],1 (2%)
same,"TEAE: Insomnia, subjects n (%)",[7],4 (8%)
same,"TEAE: Nausea, subjects n (%)",[7],3 (6%)
same,"TEAE: URTI, subjects n (%)",[7],2 (4%)
same,"TEAE: Abnormal dreams, subjects n (%)",3.0 mg TID (n = 50),3 (6%)
same,"TEAE: At least 1 AE, subjects n (%)",3.0 mg TID (n = 50),21 (42%)
same,"TEAE: Constipation, subjects n (%)",3.0 mg TID (n = 50),3 (6%)
same,"TEAE: Fatigue, subjects n (%)",3.0 mg TID (n = 50),1 (2%)
same,"TEAE: Headache, subjects n (%)",3.0 mg TID (n = 50),2 (4%)
same,"TEAE: Insomnia, subjects n (%)",3.0 mg TID (n = 50),3 (6%)
same,"TEAE: Nausea, subjects n (%)",3.0 mg TID (n = 50),3 (6%)
same,"TEAE: URTI, subjects n (%)",3.0 mg TID (n = 50),3 (6%)
same,Serious AEs,"ORCA-1, pooled Cytisinicline (n = 203)",0
same,"TEAE: Abnormal dreams, subjects n (%)",Pooled Cytisinicline (n = 203),18 (9%)
same,"TEAE: At least 1 AE, subjects n (%)",Pooled Cytisinicline (n = 203),93 (46%)
same,"TEAE: Constipation, subjects n (%)",Pooled Cytisinicline (n = 203),4 (2%)
same,"TEAE: Fatigue, subjects n (%)",Pooled Cytisinicline (n = 203),7 (3%)
same,"TEAE: Headache, subjects n (%)",Pooled Cytisinicline (n = 203),10 (5%)
same,"TEAE: Insomnia, subjects n (%)",Pooled Cytisinicline (n = 203),14 (7%)
same,"TEAE: Nausea, subjects n (%)",Pooled Cytisinicline (n = 203),12 (6%)
same,"TEAE: URTI, subjects n (%)",Pooled Cytisinicline (n = 203),13 (6%)
same,binding to receptor subtype,[2],bind strongly and preferentially
"c1cnc2cc3c(cc2n1)[C@@H]1CNC[C@H]3C1 [Chantix ®, varenicline]",Drug-placebo difference in quit rate,[3]; 4 weeks off treatment (EAGLES),20.7%
same,"OR, quit rate versus placebo",[3]; 4 weeks off treatment (EAGLES),3.5
same,Quit Rate at End of Treatment,[3]; 12 weeks (EAGLES),38.0%
same,CAR weeks 9-24 % (95% CI),[3]; Region Non-U.S.,27.9 (25.2-30.8) %
same,"Versus placebo OR (95% CI), CAR weeks 9-24",[3]; Region Non-U.S.,2.80 (2.20-3.55)
same,"Versus placebo OR (95% CI), CAR weeks 9-24",[3]; Region U.S.,2.66 (1.99-3.55)
same,CAR weeks 9-24 % (95% CI),"[3]; Region U.S., listed as Chantix®",16%
same,CAR weeks 9-24 % (95% CI),"[3]; Region U.S., listed as Varenicline",16.1 (14.0-18.4) %
same,overall quit rate at 24 weeks,[3]; all regions (EAGLES),22%
same,Drug-placebo difference in quit rate,[3]; [8],24.3%
same,"OR, quit rate versus placebo",[3]; [8],4.0
same,Quit Rate at 4 Weeks Off Treatment,[3]; sustained quit (EAGLES),33.2%
same,Quit Rate at 4 Weeks Treatment,[4]; 4 weeks (ONCKEN),37.7%
same,Drug-placebo difference in quit rate,[4]; 4 weeks treatment (ONCKEN),21.4%
same,"OR, quit rate versus placebo",[4]; 4 weeks treatment (ONCKEN),3.1
same,Abnormal dreams,[5],12.5%
same,Headache,[5],12.7%
same,Insomnia,[5],14.2%
same,Nausea,[5],27.8%
same,Serious AEs,[5],3.3%
"CN1CCCC1c1cccnc1 (stereo not shown) [nicotine, Nicotine, reference compound]",binding to receptor subtype,[2],bind strongly and preferentially
